The target of data set [1] is T1, Ephrin type-B receptor 2 (Homo sapiens, UniProt P29323).
T1 sequence (P29323 whole entry): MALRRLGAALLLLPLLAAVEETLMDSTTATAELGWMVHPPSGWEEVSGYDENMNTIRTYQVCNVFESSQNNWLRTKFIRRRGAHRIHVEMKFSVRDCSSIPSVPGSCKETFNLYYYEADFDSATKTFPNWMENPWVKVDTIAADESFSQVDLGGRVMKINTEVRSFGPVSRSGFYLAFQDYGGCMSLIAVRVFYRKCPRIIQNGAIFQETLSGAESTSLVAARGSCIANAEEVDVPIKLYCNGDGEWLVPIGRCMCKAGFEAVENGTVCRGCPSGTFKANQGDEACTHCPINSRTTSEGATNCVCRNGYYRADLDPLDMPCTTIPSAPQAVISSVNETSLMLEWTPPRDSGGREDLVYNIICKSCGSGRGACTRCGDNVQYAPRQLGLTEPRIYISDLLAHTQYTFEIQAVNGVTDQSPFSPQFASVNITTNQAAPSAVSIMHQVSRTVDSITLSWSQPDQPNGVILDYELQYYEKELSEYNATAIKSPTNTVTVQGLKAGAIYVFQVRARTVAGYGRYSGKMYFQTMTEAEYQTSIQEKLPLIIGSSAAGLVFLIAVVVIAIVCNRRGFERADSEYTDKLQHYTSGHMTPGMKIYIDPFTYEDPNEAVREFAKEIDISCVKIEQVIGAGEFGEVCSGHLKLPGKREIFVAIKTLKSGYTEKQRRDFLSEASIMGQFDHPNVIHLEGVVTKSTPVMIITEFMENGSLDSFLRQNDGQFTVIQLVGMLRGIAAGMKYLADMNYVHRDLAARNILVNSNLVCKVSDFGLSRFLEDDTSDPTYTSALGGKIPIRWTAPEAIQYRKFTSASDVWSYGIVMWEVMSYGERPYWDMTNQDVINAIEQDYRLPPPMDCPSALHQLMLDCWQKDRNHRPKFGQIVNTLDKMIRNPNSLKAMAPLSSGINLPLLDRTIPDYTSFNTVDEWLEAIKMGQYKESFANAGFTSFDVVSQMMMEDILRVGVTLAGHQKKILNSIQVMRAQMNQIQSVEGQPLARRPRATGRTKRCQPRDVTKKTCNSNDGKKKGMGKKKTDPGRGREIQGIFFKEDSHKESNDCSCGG
As to the kind of experiment: Inhibition of EphB2.

Data set [2] deals with Tyrosine-protein kinase CSK (Homo sapiens, UniProt P41240). Briefly: Inhibition of CSK.
The target of data set [3] is Insulin-like growth factor 1 receptor (Homo sapiens, UniProt P08069). Briefly: Inhibition of IGF.
Data set [4] has as its target T2, Tyrosine-protein kinase ZAP-70 (Homo sapiens, UniProt P43403).
T2 sequence (P43403 whole entry): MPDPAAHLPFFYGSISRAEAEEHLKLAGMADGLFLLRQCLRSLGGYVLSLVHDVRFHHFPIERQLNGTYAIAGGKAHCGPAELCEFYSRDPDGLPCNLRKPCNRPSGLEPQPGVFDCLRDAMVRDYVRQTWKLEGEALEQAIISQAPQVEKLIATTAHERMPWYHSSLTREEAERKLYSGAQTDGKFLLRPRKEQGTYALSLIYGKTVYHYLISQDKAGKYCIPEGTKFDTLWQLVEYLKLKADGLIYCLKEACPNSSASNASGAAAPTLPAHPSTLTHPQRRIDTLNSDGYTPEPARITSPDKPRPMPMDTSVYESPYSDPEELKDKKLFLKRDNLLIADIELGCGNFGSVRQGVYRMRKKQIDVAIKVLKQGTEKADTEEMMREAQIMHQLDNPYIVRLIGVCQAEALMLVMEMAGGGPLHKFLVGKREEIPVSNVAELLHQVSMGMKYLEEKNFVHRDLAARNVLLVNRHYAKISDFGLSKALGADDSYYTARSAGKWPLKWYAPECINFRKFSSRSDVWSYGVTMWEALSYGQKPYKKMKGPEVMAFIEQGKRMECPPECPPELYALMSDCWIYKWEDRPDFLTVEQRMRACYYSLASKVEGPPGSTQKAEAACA
Briefly: Inhibition of ZAP70.

Data set [5] concerns the target Vascular endothelial growth factor receptor 2 (Homo sapiens, UniProt P35968). As to the kind of experiment: Inhibition of KDR.
In data set [6] the target is T3, Serine/threonine-protein kinase Chk1 (Homo sapiens, UniProt O14757).
T3 sequence (O14757 whole entry): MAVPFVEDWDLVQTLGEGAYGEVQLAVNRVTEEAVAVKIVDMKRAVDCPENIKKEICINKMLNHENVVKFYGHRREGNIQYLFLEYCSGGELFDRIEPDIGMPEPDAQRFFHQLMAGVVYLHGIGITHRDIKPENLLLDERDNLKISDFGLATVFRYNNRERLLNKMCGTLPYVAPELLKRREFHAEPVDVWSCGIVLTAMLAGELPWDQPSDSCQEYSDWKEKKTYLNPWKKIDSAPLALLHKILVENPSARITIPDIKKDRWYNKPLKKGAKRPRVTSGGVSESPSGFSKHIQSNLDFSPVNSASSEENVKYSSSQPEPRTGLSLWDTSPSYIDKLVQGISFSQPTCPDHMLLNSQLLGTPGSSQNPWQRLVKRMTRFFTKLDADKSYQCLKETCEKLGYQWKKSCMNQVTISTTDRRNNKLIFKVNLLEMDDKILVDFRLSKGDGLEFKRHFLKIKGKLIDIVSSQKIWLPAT
Briefly: Inhibition of CHK1.

The nature of data set [7]: Clearance in Han Wistar rat at 5 umol/kg, po or 0.5 umol/kg, iv. The format is ADME, organism-based. The settings on record: in vivo.

Consider one compound from ChEMBL document CHEMBL1145633, “Inhibitors of the tyrosine kinase EphB4. Part 1: Structure-based design and optimization of a series of 2,4-bis-anilinopyrimidines” (Bioorg Med Chem Lett, 2008).

Tyrosine-protein kinase CSK, sequence (P41240 whole entry): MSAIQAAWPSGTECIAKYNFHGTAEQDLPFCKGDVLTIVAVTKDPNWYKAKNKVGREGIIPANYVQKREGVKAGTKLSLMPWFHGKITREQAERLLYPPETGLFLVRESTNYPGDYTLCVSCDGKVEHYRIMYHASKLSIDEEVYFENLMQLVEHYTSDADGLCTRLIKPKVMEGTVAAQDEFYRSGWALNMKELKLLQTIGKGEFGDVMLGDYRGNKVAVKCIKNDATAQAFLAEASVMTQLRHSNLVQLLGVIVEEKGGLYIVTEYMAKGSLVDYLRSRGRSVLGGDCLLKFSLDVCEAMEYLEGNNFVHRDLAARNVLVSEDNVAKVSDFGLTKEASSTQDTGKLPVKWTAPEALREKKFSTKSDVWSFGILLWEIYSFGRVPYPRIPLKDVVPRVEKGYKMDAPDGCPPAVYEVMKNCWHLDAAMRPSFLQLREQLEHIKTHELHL
Vascular endothelial growth factor receptor 2, sequence (P35968 whole entry): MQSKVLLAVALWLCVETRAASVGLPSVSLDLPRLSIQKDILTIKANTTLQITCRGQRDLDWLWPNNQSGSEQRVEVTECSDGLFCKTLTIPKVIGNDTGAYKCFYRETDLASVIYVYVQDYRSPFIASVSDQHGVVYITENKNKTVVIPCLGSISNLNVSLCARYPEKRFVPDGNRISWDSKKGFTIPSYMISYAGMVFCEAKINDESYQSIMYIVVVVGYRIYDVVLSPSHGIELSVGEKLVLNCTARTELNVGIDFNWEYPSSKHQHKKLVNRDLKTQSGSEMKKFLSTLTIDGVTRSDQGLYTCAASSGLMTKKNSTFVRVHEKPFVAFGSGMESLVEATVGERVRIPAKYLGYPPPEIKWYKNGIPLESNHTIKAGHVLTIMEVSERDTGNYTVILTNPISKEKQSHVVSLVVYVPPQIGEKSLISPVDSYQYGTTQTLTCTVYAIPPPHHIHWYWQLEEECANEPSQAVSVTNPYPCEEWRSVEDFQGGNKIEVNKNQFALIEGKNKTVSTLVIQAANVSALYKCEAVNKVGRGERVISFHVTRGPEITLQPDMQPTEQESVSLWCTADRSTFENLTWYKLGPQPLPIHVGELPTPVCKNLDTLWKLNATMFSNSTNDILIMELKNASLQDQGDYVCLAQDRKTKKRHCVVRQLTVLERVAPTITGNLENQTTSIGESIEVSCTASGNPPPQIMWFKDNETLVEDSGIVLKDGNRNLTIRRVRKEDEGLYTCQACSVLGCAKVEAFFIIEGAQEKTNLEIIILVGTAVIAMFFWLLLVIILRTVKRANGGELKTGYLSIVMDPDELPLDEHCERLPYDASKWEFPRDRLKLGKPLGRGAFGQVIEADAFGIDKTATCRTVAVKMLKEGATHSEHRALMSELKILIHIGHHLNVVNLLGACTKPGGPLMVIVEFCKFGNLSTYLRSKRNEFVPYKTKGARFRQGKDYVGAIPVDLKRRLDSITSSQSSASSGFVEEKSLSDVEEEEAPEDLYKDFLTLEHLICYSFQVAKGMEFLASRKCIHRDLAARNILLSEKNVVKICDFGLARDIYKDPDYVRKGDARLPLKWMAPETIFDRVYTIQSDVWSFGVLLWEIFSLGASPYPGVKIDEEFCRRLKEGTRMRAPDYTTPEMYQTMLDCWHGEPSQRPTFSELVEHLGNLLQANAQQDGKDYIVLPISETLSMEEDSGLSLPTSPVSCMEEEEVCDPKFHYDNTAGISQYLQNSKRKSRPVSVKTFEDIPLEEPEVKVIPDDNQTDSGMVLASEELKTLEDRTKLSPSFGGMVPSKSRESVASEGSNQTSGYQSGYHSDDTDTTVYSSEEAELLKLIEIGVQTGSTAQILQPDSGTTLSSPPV
Insulin-like growth factor 1 receptor, sequence (P08069 31-736 limits assumed): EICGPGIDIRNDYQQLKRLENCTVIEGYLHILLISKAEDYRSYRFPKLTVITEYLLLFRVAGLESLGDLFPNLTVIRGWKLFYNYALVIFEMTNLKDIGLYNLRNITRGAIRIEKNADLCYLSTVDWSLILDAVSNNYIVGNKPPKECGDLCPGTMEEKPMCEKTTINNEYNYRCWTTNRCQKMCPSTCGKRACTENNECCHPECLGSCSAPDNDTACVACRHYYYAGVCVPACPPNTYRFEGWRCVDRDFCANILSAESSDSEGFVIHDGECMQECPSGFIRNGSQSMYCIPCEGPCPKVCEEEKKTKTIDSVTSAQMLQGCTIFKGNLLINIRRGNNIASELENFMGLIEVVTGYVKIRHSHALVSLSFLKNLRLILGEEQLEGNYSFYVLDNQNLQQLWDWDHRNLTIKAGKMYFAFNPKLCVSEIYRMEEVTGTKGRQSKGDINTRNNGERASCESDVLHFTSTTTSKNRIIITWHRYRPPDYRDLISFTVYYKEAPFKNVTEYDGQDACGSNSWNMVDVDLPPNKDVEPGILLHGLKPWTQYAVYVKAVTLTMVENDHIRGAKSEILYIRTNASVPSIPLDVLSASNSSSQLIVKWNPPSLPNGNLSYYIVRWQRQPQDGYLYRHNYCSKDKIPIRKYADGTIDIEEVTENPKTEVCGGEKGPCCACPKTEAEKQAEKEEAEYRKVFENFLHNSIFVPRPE
Insulin-like growth factor 1 receptor, sequence (P08069 741-1367 limits assumed): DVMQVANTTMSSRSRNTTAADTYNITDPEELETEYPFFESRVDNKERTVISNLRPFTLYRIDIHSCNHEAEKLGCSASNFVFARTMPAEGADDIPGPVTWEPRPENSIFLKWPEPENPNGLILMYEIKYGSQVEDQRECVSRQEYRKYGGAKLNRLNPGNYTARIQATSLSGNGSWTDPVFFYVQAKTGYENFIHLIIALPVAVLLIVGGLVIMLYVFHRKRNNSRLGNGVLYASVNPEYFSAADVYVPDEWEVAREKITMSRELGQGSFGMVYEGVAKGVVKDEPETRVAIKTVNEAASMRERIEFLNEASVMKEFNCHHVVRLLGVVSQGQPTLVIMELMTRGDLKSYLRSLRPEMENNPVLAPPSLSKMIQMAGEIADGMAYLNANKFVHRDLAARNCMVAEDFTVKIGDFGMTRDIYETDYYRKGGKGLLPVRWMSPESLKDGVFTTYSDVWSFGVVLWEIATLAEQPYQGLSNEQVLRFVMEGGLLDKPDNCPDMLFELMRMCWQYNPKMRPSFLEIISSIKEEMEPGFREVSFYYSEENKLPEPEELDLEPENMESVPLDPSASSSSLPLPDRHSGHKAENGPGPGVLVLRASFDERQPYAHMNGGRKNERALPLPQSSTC

The IC50 is the point on the concentration scale where inhibition reaches its midpoint. Higher therefore signals weaker potency. As to `CS(=O)(=O)c1cccc(Nc2nccc(Nc3c(Cl)ccc4c3OCO4)n2)c1`, the IC50 in data set [1] was 50 nM; in data set [2], 10.7 µM; in data set [3], more than 30 µM; in data set [4], more than 30 µM; in data set [5], more than 30 µM; in data set [6], more than 30 µM. In addition, the clearance in data set [7] came to 6.1 mL/min/kg.
